# Test results from patent US20090304692A1, “TRIAZINE COMPOUNDS AS PI3 KINASE AND MTOR INHIBITORS” (Wyeth, priority 2008, published 2009).
# Where two headings read alike, the source gives them in different places.
# Experiments:
# [1] = test system: human prostate PC3-mm2 tumor cell line; experiment: In vitro cell culture growth assay (MTS), PC3-mm2; type: cell-based; conditions: Homo sapiens, PC3MM2, 72 h, MTS cell growth assay, three days after drug treatment, PC3-mm2 cells; read-out: IC50 PC3-mm2
# PI3K-α = PI3K-α (Homo sapiens, UniProt P42336); experiment: PI3K-alpha fluorescence polarization assay; conditions: read-out: IC50 PI3Kα
# Sequence of PI3K-α (P42336 whole entry, species assumed): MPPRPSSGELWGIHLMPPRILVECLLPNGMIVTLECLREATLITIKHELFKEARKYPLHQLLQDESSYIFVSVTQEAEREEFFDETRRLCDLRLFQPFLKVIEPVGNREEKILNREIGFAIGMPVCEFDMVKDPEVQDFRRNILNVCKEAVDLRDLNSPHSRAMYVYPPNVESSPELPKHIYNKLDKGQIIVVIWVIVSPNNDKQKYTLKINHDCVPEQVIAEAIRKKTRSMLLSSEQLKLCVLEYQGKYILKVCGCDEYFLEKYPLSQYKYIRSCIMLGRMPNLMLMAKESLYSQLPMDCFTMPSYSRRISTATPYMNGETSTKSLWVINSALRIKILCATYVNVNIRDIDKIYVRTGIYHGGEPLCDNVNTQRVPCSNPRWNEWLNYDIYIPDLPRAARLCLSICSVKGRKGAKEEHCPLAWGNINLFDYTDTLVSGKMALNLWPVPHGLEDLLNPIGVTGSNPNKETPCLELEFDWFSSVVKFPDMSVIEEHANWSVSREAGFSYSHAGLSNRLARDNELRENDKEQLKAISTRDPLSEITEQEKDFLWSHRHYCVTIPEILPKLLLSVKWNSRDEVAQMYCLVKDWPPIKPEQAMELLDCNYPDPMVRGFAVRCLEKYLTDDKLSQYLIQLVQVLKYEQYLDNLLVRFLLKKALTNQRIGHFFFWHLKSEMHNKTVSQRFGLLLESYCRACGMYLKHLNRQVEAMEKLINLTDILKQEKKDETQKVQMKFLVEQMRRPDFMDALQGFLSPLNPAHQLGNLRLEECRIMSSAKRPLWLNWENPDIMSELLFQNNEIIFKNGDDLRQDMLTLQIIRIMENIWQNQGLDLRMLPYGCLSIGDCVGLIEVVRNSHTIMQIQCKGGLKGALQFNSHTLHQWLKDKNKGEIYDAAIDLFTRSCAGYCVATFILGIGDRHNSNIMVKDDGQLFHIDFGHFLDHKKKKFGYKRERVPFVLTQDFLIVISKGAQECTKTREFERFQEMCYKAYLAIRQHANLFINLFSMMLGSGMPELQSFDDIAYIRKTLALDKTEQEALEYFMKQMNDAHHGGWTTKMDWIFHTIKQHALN
# Sequence of PI3K-α (P27986 whole entry partner, species assumed): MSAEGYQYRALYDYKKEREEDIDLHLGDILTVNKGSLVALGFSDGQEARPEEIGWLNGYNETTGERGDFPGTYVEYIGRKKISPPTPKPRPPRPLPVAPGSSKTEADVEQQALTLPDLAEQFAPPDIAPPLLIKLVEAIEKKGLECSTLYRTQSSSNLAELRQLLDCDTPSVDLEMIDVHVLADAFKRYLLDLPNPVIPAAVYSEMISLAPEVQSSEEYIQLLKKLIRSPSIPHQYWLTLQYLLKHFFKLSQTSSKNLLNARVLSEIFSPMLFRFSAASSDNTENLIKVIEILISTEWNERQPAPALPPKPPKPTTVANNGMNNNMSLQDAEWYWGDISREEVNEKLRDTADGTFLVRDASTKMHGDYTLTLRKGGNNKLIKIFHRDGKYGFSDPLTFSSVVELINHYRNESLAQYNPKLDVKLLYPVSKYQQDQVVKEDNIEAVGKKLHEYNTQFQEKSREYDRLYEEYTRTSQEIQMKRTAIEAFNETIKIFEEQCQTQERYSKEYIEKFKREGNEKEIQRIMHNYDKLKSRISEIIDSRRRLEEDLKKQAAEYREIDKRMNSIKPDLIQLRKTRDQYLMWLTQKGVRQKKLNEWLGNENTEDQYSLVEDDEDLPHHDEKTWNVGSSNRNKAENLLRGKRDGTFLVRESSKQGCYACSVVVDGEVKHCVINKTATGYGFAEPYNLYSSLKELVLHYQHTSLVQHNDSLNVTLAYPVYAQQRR
# PI3K-γ = PI3K-γ (Homo sapiens, UniProt P48736); experiment: PI3K-gamma fluorescence polarization assay; conditions: read-out: IC50 PI3Kγ
# Sequence of PI3K-γ (P48736 whole entry, species assumed): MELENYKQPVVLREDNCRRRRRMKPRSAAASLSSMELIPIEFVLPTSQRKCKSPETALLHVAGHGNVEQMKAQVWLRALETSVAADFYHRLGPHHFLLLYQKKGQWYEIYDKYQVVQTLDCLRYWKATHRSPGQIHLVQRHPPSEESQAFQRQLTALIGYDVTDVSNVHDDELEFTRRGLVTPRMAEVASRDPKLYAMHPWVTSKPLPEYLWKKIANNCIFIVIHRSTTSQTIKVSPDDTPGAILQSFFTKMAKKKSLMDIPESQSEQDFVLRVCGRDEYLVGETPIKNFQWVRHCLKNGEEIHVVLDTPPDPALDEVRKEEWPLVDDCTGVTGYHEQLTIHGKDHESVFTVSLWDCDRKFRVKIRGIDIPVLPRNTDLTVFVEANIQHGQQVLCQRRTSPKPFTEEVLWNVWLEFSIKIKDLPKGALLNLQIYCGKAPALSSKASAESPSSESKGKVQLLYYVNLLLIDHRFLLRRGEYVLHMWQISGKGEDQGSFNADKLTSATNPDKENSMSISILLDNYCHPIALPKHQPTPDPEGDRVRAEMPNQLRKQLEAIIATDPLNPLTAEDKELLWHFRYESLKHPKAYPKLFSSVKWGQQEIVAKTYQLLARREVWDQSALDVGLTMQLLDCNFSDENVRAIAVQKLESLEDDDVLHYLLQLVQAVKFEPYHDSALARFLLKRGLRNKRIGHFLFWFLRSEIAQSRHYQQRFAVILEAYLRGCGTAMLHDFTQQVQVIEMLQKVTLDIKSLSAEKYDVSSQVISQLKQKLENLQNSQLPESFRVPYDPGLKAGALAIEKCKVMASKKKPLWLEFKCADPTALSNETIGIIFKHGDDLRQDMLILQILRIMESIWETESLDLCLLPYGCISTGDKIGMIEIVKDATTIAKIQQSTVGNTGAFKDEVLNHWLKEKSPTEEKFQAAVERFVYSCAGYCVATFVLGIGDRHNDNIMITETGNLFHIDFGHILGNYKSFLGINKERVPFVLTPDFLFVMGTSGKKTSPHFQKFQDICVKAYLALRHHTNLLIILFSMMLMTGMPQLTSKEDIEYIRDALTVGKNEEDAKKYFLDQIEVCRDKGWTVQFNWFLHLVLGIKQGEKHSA
# Human mTOR (FLAG-TOR) = Human mTOR (FLAG-TOR) (Homo sapiens, UniProt P42345); experiment: mTOR kinase assay (DELFIA format, purified enzyme); type: biochemical; conditions: read-out: IC50 mTOR
# Sequence of Human mTOR (FLAG-TOR) (P42345 1360-2549 limits assumed): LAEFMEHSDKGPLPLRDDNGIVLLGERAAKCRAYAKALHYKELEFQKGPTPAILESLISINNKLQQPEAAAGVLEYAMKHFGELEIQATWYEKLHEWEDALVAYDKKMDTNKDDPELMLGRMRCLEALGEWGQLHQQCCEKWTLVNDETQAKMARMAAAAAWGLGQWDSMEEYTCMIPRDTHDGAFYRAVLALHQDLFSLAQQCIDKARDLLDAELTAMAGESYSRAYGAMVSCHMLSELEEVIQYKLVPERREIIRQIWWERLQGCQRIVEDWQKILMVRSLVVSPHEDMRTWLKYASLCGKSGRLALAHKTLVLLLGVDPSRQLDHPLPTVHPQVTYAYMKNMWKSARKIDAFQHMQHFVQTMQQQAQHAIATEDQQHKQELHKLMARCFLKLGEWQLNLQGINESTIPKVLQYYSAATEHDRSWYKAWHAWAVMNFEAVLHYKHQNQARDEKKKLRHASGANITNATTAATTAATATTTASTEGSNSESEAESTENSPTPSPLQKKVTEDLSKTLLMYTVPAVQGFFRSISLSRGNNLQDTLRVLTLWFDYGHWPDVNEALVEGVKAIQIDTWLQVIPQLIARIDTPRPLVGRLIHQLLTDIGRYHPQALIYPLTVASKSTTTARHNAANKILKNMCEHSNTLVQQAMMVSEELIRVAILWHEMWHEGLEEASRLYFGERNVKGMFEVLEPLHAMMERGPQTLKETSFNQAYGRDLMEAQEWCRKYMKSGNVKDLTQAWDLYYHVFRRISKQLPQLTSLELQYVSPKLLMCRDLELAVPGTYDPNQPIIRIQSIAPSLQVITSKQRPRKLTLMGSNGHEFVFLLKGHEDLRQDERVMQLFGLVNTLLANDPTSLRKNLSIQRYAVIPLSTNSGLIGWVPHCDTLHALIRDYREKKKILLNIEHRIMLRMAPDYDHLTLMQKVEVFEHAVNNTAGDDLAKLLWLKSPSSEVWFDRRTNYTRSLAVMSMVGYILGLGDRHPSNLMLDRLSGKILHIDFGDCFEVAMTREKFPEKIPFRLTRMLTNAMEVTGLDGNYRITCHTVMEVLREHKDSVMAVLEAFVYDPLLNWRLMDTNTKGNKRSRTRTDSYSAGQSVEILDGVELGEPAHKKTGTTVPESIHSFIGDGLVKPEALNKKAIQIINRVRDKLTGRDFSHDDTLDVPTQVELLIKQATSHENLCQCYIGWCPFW
# [2] = test system: human breast MDA-MB-361 tumor cell line; experiment: In vitro cell culture growth assay (MTS), MDA-MB-361; type: cell-based; conditions: Homo sapiens, MTS cell growth assay, three days after drug treatment, MDA-MB-361 cells, read-out: IC50 MDA-MB-361
smiles,measurement,setting,value
"CN(C)C1CCN(C(=O)Nc2ccc(NC(=O)Nc3ccc(-c4nc(N5CCOCC5)nc(N5CCOCC5)n4)cc3)cc2)CC1 [Example 499, 4-(dimethylamino)-N-[4-({[4-(4,6-dimorpholin-4-yl-1,3,5-triazin-2-yl)phenyl]carbamoyl}amino)phenyl]piperidine-1-carboxamide]",IC50,[1],31 nM
same,IC50,PI3K-α,< 1.9 nM
same,IC50,PI3K-γ,4.5 nM
same,IC50,Human mTOR (FLAG-TOR),2.2 nM
same,IC50,"[2]; MDA-MB-361, 72 h",21 nM
"O=C(NCCN1CCCCC1)Nc1ccc(NC(=O)Nc2ccc(-c3nc(N4CCOCC4)nc(N4CCOCC4)n3)cc2)cc1 [Example 501, 1-[4-(4,6-dimorpholin-4-yl-1,3,5-triazin-2-yl)phenyl]-3-(4-{[(2-piperidin-1-ylethyl)carbamoyl]amino}phenyl)urea]",IC50,[1],41 nM
same,IC50,PI3K-α,< 1.75 nM
same,IC50,PI3K-γ,6.5 nM
same,IC50,Human mTOR (FLAG-TOR),0.69 nM
same,IC50,[2]; 72 h,< 31 nM
"CN1CCCN(C(=O)Nc2ccc(NC(=O)Nc3ccc(-c4nc(N5CCOCC5)nc(N5CCOCC5)n4)cc3)cc2)CC1 [Example 502, N-[4-({[4-(4,6-dimorpholin-4-yl-1,3,5-triazin-2-yl)phenyl]carbamoyl}amino)phenyl]-4-methyl-1,4-diazepane-1-carboxamide]",IC50,[1],11 nM
same,IC50,PI3K-α,0.5 nM
same,IC50,PI3K-γ,6 nM
same,IC50,Human mTOR (FLAG-TOR),1 nM
same,IC50,[2]; 72 h,4 nM
"CN(C)C(=O)Nc1ccc(NC(=O)Nc2ccc(-c3nc(N4CCOCC4)nc(N4CCOCC4)n3)cc2)cc1 [Example 504, 1-{4-[(dimethylcarbamoyl)amino]phenyl}-3-[4-(4,6-dimorpholin-4-yl-1,3,5-triazin-2-yl)phenyl]urea]",IC50,[1],25.5 nM
same,IC50,PI3K-α,1.8 nM
same,IC50,PI3K-γ,10 nM
same,IC50,Human mTOR (FLAG-TOR),1.35 nM
same,IC50,"[2]; MDA-MB-361, 72 h",22.5 nM
"CN1CCN(C(=O)c2ccc(NC(=O)Nc3ccc(-c4nc(C5CCOCC5)nc(N5CCOCC5)n4)cc3)cc2)CC1 [Example 511, 1-{4-[(4-methylpiperazin-1-yl)carbonyl]phenyl}-3-{4-[4-morpholin-4-yl-6-(tetrahydro-2H-pyran-4-yl)-1,3,5-triazin-2-yl]phenyl}urea]",IC50,[1],10 nM
same,IC50,PI3K-α,2.3 nM
same,IC50,PI3K-γ,10.3 nM
same,IC50,Human mTOR (FLAG-TOR),0.52 nM
same,IC50,"[2]; MDA-MB-361, 72 h",2 nM
"CN(C)CCNC(=O)c1ccc(NC(=O)Nc2ccc(-c3nc(C4CCOCC4)nc(N4CCOCC4)n3)cc2)cc1 [Example 512, N-[2-(dimethylamino)ethyl]-4-[({4-[4-morpholin-4-yl-6-(tetrahydro-2H-pyran-4-yl)-1,3,5-triazin-2-yl]phenyl}carbamoyl)amino]benzamide]",IC50,[1],8 nM
same,IC50,PI3K-α,< 1.9 nM
same,IC50,PI3K-γ,10 nM
same,IC50,Human mTOR (FLAG-TOR),0.12 nM
same,IC50,[2]; 72 h,1 nM
"O=C(Nc1ccc(C(=O)NCCN2CCCC2)cc1)Nc1ccc(-c2nc(C3CCOCC3)nc(N3CCOCC3)n2)cc1 [Example 513, 4-[({4-[4-morpholin-4-yl-6-(tetrahydro-2H-pyran-4-yl)-1,3,5-triazin-2-yl]phenyl}carbamoyl)amino]-N-(2-pyrrolidin-1-ylethyl)benzamide]",IC50,[1],13 nM
same,IC50,PI3K-α,< 2.4 nM
same,IC50,PI3K-γ,12 nM
same,IC50,Human mTOR (FLAG-TOR),0.12 nM
same,IC50,[2]; 72 h,2 nM
"O=C(Nc1ccc(C(=O)NCCN2CCCCC2)cc1)Nc1ccc(-c2nc(C3CCOCC3)nc(N3CCOCC3)n2)cc1 [Example 514, 4-[({4-[4-morpholin-4-yl-6-(tetrahydro-2H-pyran-4-yl)-1,3,5-triazin-2-yl]phenyl}carbamoyl)amino]-N-(2-piperidin-1-ylethyl)benzamide]",IC50,[1],12 nM
same,IC50,PI3K-α,1.6 nM
same,IC50,PI3K-γ,15 nM
same,IC50,Human mTOR (FLAG-TOR),0.17 nM
same,IC50,[2]; 72 h,< 3.2 nM
"CC(C)N1CCN(C(=O)c2ccc(NC(=O)Nc3ccc(-c4nc(N5CCOCC5)nc(N5CCOCC5)n4)cc3)cc2)CC1 [Example 515, 1-[4-(4,6-dimorpholin-4-yl-1,3,5-triazin-2-yl)phenyl]-3-(4-{[4-(1-methylethyl)piperazin-1-yl]carbonyl}phenyl)urea]",IC50,[1],12 nM
same,IC50,PI3K-α,0.4 nM
same,IC50,PI3K-γ,7.6 nM
same,IC50,Human mTOR (FLAG-TOR),1.55 nM
same,IC50,"[2]; MDA-MB-361, 72 h",3 nM
"CC(C)N1CCN(C(=O)c2ccc(NC(=O)Nc3ccc(-c4nc(O[C@H]5CCOC5)nc(N5CCOCC5)n4)cc3)cc2)CC1 [Example 522, 1-(4-{[4-(1-methylethyl)piperazin-1-yl]carbonyl}phenyl)-3-(4-{4-morpholin-4-yl-6-[(3S)-tetrahydrofuran-3-yloxy]-1,3,5-triazin-2-yl}phenyl)urea]",IC50,[1],11 nM
same,IC50,PI3K-α,1.4 nM
same,IC50,PI3K-γ,7.5 nM
same,IC50,Human mTOR (FLAG-TOR),1.06 nM
same,IC50,[2]; 72 h,3 nM
"CCc1nc(-c2ccc(NC(=O)Nc3ccc(C(=O)N4CCN(c5ccccn5)CC4)cc3)cc2)nc(N2CCOCC2)n1 [Example 534, 1-[4-(4-ethyl-6-morpholin-4-yl-1,3,5-triazin-2-yl)phenyl]-3-{4-[(4-pyridin-2-ylpiperazin-1-yl)carbonyl]phenyl}urea]",IC50,[1],73.7 nM
same,IC50,PI3K-α,2.1 nM
same,IC50,PI3K-γ,11.1 nM
same,IC50,Human mTOR (FLAG-TOR),53.4 nM
same,IC50,[2]; 72 h,32.3 nM
"CN(C)CCN(C)C(=O)c1ccc(NC(=O)Nc2ccc(-c3nc(-c4ccccc4)nc(N4CCOCC4)n3)cc2)cc1 [Example 539, N-[2-(dimethylamino)ethyl]-N-methyl-4-({[4-(4-morpholin-4-yl-6-phenyl-1,3,5-triazin-2-yl)phenyl]carbamoyl}amino)benzamide]",IC50,[1],161 nM
same,IC50,PI3K-α,1.1 nM
same,IC50,PI3K-γ,16 nM
same,IC50,Human mTOR (FLAG-TOR),0.0085 nM
same,IC50,[2]; 72 h,9 nM
"COC(=O)c1ccc(NC(=O)Nc2ccc(-c3nc(N4CCOC[C@@H]4C)nc(N4CCOC[C@@H]4C)n3)cc2)cc1 [Example 540, methyl 4-{[(4-{4,6-bis[(3S)-3-methylmorpholin-4-yl]-1,3,5-triazin-2-yl}phenyl)carbamoyl]amino}benzoate]",IC50,[1],309 nM
same,IC50,PI3K-α,54 nM
same,IC50,PI3K-γ,121 nM
same,IC50,Human mTOR (FLAG-TOR),0.0034 nM
same,IC50,[2]; 72 h,165 nM
"O=C(Nc1ccc(C(=O)O)cc1)Nc1ccc(-c2nc(-c3ccccc3)nc(N3CCOCC3)n2)cc1 [Example 541, 4-({[4-(4-morpholin-4-yl-6-phenyl-1,3,5-triazin-2-yl)phenyl]carbamoyl}amino)benzoic acid]",IC50,[1],1760 nM
same,IC50,PI3K-α,28 nM
same,IC50,PI3K-γ,57 nM
same,IC50,Human mTOR (FLAG-TOR),17 nM
same,IC50,"[2]; MDA-MB-361, 72 h",964 nM
"Cc1ccc(-c2nc(-c3ccc(NC(=O)Nc4ccc(C(=O)NCCN(C)C)cc4)cc3)nc(N3CCOCC3)n2)cc1 [Example 542, N-[2-(dimethylamino)ethyl]-4-[({4-[4-(4-methylphenyl)-6-morpholin-4-yl-1,3,5-triazin-2-yl]phenyl}carbamoyl)amino]benzamide]",IC50,[1],569 nM
same,IC50,PI3K-α,8 nM
same,IC50,PI3K-γ,67 nM
same,IC50,Human mTOR (FLAG-TOR),21.5 nM
same,IC50,[2]; 72 h,281 nM
"CN1CCN(C(=O)c2ccc(NC(=O)Nc3ccc(-c4nc(-c5ccccc5)nc(N5CCOCC5)n4)cc3)cc2)CC1 [Example 543, 1-{4-[(4-methylpiperazin-1-yl)carbonyl]phenyl}-3-[4-(4-morpholin-4-yl-6-phenyl-1,3,5-triazin-2-yl)phenyl]urea]",IC50,[1],262 nM
same,IC50,PI3K-α,3.5 nM
same,IC50,PI3K-γ,15.5 nM
same,IC50,Human mTOR (FLAG-TOR),42 nM
same,IC50,"[2]; MDA-MB-361, 72 h",< 31 nM
"CN(C)CCNC(=O)c1ccc(NC(=O)Nc2ccc(-c3nc(-c4ccccc4)nc(N4CCOCC4)n3)cc2)cc1 [Example 545, N-[2-(dimethylamino)ethyl]-4-({[4-(4-morpholin-4-yl-6-phenyl-1,3,5-triazin-2-yl)phenyl]carbamoyl}amino)benzamide]",IC50,[1],219 nM
same,IC50,PI3K-α,4 nM
same,IC50,PI3K-γ,17 nM
same,IC50,Human mTOR (FLAG-TOR),10.9 nM
same,IC50,[2]; 72 h,30 nM
"C[C@H]1COCCN1c1nc(-c2ccc(NC(=O)Nc3ccc(C(=O)NCCN(C)C)cc3)cc2)nc(N2CCOC[C@@H]2C)n1 [Example 546, 4-{[(4-{4,6-bis[(3S)-3-methylmorpholin-4-yl]-1,3,5-triazin-2-yl}phenyl)carbamoyl]amino}-N-[2-(dimethylamino)ethyl]benzamide]",IC50,[1],25 nM
same,IC50,PI3K-α,3.5 nM
same,IC50,PI3K-γ,73.5 nM
same,IC50,Human mTOR (FLAG-TOR),0.225 nM
same,IC50,[2]; 72 h,7 nM
"Cc1ccc(-c2nc(-c3ccc(NC(=O)Nc4ccc(C(=O)N5CCN(C(C)C)CC5)cc4)cc3)nc(N3CCOCC3)n2)cc1 [Example 547, 1-{4-[(4-isopropylpiperazin-1-yl)carbonyl]phenyl}-3-{4-[4-(4-methylphenyl)-6-morpholin-4-yl-1,3,5-triazin-2-yl]phenyl}urea]",IC50,[1],197 nM
same,IC50,PI3K-α,11 nM
same,IC50,PI3K-γ,70 nM
same,IC50,Human mTOR (FLAG-TOR),7.75 nM
same,IC50,"[2]; MDA-MB-361, 72 h",68 nM
"Cc1ccc(-c2nc(-c3ccc(NC(=O)Nc4ccc(C(=O)NCCN5CCCC5)cc4)cc3)nc(N3CCOCC3)n2)cc1 [Example 548, 4-[({4-[4-(4-methylphenyl)-6-morpholin-4-yl-1,3,5-triazin-2-yl]phenyl}carbamoyl)amino]-N-(2-pyrrolidin-1-ylethyl)benzamide]",IC50,[1],869 nM
same,IC50,PI3K-α,40 nM
same,IC50,PI3K-γ,387 nM
same,IC50,Human mTOR (FLAG-TOR),9.75 nM
same,IC50,[2]; 72 h,524 nM
"COCCNC(=O)c1ccc(NC(=O)Nc2ccc(-c3nc(-c4ccc(C)cc4)nc(N4CCOCC4)n3)cc2)cc1 [Example 550, N-(2-methoxyethyl)-4-[({4-[4-(4-methylphenyl)-6-morpholin-4-yl-1,3,5-triazin-2-yl]phenyl}carbamoyl)amino]benzamide]",IC50,[1],711 nM
same,IC50,PI3K-α,47 nM
same,IC50,PI3K-γ,374 nM
same,IC50,Human mTOR (FLAG-TOR),12.4 nM
same,IC50,[2]; 72 h,315 nM
